Reference: PMC5019189 (European journal of pharmacology, 2015)
Read-outs that look alike come from different tables or passages of the source.

What was measured:
HUVEC = assay: Cell viability; type: cell-based, human; details: 24 h, linear regression, mean of three experiments
[1] = system: TNF-α-induced VCAM-1 protein expression; assay: ELISA of 24 h TNF-α-induced VCAM-1 protein expression on HUVEC; type: cell-based, human; details: for inhibition of the VCAM-1 protein expression elicited by TNF-α: 50 μM compound
[2] = system: TNF-α-induced VCAM-1 mRNA expression; details: human aortic endothelial cells, Northern blot analysis; ref Dagia et al., 2004; cited from earlier work
[3] = system: abnormal MHC gene expression in thyroid epithelial cells; details: ref Giuliani et al., 2010; cited from earlier work

Row | SMILES | TC50, concentration of compound needed to reduce the MTS signal by 50% of the control value (HUVEC) | inhibition of the VCAM-1 protein expression elicited by TNF-α ([1]; 24 h TNF-α) | inhibition of VCAM-1 protein expression ([1]; 70 μM compound, 24 h TNF-α) | IC50 ([1]; Homo sapiens, 24 h, read-out: IC50, concentration of compound needed to inhibit 50% of the VCAM-1 expression) | effect on 24 h TNF-α-induced VCAM-1 mRNA expression [2] | suppression of abnormal MHC gene expression compared to MMI [3] | IC50 ([1]; read-out: IC50, concentration of compound needed to inhibit 50% of the VCAM-1 expression, 10 ng/ml TNF-α, 24 h, ELISA, linear regression, average of at least three experiments)
1 | Cn1cc[nH]c1=S [MMI, 3-methyl-1, 3 imidazole-2 thione] | 2.45 mM | no inhibitory effect | little, if any, inhibition | 1.14 mM |  |  | 
2 | Cn1c(-c2ccccc2)c[nH]c1=S [1a, 4-phenyl-3-methyl-1, 3 imidazole-2-thione] |  | over 40% |  |  | inhibits | 70–100 fold | 0.066 mM
